Test results as given in patent US8343963B2, “Sulfamoyl-phenyl-ureido compounds and their use as medicament” (4SC AG, priority 2009, dated 2013).
≈ marks a conversion by molar mass, not a printed value. Read-outs that look alike come from different tables or passages of the source.

What was measured:
[1] = test system: multiresistant Dd2 strain of Plasmodium falciparum; assay: Antiplasmodial activity against Dd2 strain of Plasmodium falciparum ([8-3H]hypoxanthine incorporation); type: cell-based; conditions: 66 h, P. falciparum Dd2, 48 h + 18 h with [8-3H]hypoxanthine, 50% parasite growth inhibition, read-out: Antiplasmodia activity (IC50 class)
Experimental: For the determination of the antiplasmodial activity of the compounds described above, the multiresistant Dd2 strain of Plasmodium falciparum was used. The incorporation of [8-^3H]hypoxanthine into the parasitic nucleic acids was measured. The plasmodia were incubated at 0.3% parasitaemia and an erythrocyte haematocrit of 2.5% in the presence of different concentrations of the compounds in a final volume of 200 μl. The medium employed was RPMI 1640 which contained 10% of heat-treated human serum and 3 mg/l of gentamycin. In the incubations, the concentrations of the compounds varied from 0.001 to 100 μM. After 48 h, each batch was treated with 50 μl of [8-^3H]hypoxanthine (1 mCi/ml) and incubated for a further 18 h. The cells were filtered off, washed and suspended in 20 μl of scintillation fluid. The radioactive hypoxanthine absorbed by the parasites was then quantified using a scintillation counter. The results were presented graphically and the IC50 value was determined using a fitting function. The value IC50, the ‘inhibition constant’, indicates the value in μMol/l at which 50% parasite growth inhibition occurs (R. E. Desjardins, et al., Antimicrobiol. Agent Chemother. 16, pp. 710-718, 1979; J. D. Chulay, et al., Exp. Parasitol. 55, pp. 138-146, 1983).

[2] = In vitro clearance using human liver microsomes; type: in vitro ADME; conditions: human liver microsomes 0.5 mg/ml, 1 μM compound, 37° C., 0-30 min
Experimental: These experiments were performed at Nikem Research (Via Zambeletti 25; Baranzate, Milan, Italy). Test compounds in duplicate at the final concentration of 1 μM were dissolved in DMSO and pre-incubated for 10 min at 37° C. in phosphate buffer pH 7.4, 3 mM MgCl2, with human liver microsomes at the final concentration of 0.5 mg/ml. After the pre-incubation period, reaction was started by adding the cofactor mixture (NADP, Glc6P, G6P-DH); samples were taken at time 0, 5, 10, 15, 20 and 30 min and added to acetonitrile to quench the metabolic reaction, centrifuged and supernatant analysed and quantified by HPLC/MS. A control sample without cofactors was always added in order to check the chemical stability of test compounds. 7-ethoxycoumarin was added as reference standard. A fixed concentration of verapamil was added in every sample as internal standard for HPLC/MS. The concentration of the remaining compound at different times was determined by HPLC/MS. The rate constant, k (min^−1) derived for the exponential decay equation (peak area vs time) was used to calculate the rate of intrinsic clearance (Cli) of the compounds using the following equations: Cli (μl/min/mg compound)=k×V; where: V (μl/mg compound)=incubation volume/mg compound added. In table 3 the clearance (in vitro metabolic stability) classification was as follows: Cli<10=compound stable; Cli between 10 and 60=low metabolism; Cli between 60 and 600=medium metabolism Cli>600=high metabolism.

[3] = Solubility and solubility-range determination in 50 mM phosphate buffer at different pH; type: physicochemical; conditions: aqueous buffer, kinetic from dmso stock, 1% DMSO, 23° C., read-out: Solubility or solubility range
Experimental: The compounds were dissolved in DMSO at a concentration of 20 mg/ml. These stock solutions were further diluted 1:1 with DMSO (50 μl solution+50 μl DMSO) in seven steps. Subsequently, these solutions were diluted 1:100 (5 μl DMSO-stock+495 μl 50 mM phosphate buffer) in all four pH buffers (respectively: pH=4; pH=6; pH=7.4; pH=9) resulting in a final DMSO concentration of 1% in the buffers. These dilutions were vigorously mixed and transferred into 96-well reading plate. The plates were incubated in a shaker (600 rpm) at 23° C. for 24 hours. After that, the contents of the wells were mixed with a pipette and optical density (OD) was recorded at wavelengths of 550 nm; 600 nm; 650 nm and 700 nm in the Tecan Sunrise plate reader. The cut-off OD sum for an undissolved concentration of a compound was defined as follows: Cut off OD sum=mean blank OD+0.050 OD. For the determination of the solubility range, the following rule was applied: OD>cut off=>compound not dissolved at this concentration OD<cut-off=>compound dissolved at this concentration For the determination of the solubility, a titration curve (OD/concentration) was prepared and the concentrations were determined based on the measured OD of the mixture supernatant after centrifugation. The solubility values are given in μg/ml (table 3).

SMILES	IC50 [1] [nM]	In vitro metabolism as determined from Cli [2]	solubility at 24 h ([3]; pH 4, 50 mM phosphate buffer) [µg/mL]	solubility at 24 h ([3]; pH 6, 50 mM phosphate buffer) [µg/mL]	solubility at 24 h ([3]; pH 7.4, 50 mM phosphate buffer) [µg/mL]	solubility at 24 h ([3]; pH 9, 50 mM phosphate buffer) [µg/mL]
CCCCN1CCN(C(=N)c2cccc(NC(=O)Nc3ccc(S(N)(=O)=O)cc3)c2)CC1 [Compound 1, 4-(3-(3-((4-butylpiperazin-1-yl)(imino)methyl)phenyl)ureido)benzenesulfonamide]	≥ 1000	low (Cli between 10 and 60=low metabolism)	–	–	–	–
CCCCN1CCN(C(=N)c2cccc(NC(=O)Nc3ccc(S(=O)(=O)Nc4ccc(S(N)(=O)=O)cc4)cc3)c2)CC1 [Compound 23, 4-(3-(3-((4-butylpiperazin-1-yl)(imino)methyl)phenyl)ureido)-N-(4-sulfamoylphenyl)benzenesulfonamide]	210 to 990	low (Cli between 10 and 60=low metabolism)	–	–	–	–
CCCCN1CCN(C(=N)c2cccc(NC(=O)Nc3ccc(S(=O)(=O)NCc4ccc(S(N)(=O)=O)cc4)cc3)c2)CC1 [Compound 34, 4-(3-(3-((4-butylpiperazin-1-yl)(imino)methyl)phenyl)ureido)-N-(4-sulfamoylbenzyl)benzenesulfonamide]	< 20	medium (Cli between 60 and 600=medium metabolism)	960 (≈ 1530 µM)	960 (≈ 1530 µM)	750 (≈ 1190 µM)	540 (≈ 860 µM)
CCN1CCN(C(=N)c2cccc(NC(=O)Nc3ccc(S(=O)(=O)NCc4ccc(S(N)(=O)=O)cc4)cc3)c2)CC1 [Compound 37, 4-(3-(3-((4-ethylpiperazin-1-yl)(imino)methyl)phenyl)ureido)-N-(4-sulfamoylbenzyl)benzenesulfonamide]	20 to 200	medium (Cli between 60 and 600=medium metabolism)	–	–	–	–
CCCN1CCN(C(=N)c2cccc(NC(=O)Nc3ccc(S(=O)(=O)NCc4ccc(S(N)(=O)=O)cc4)cc3)c2)CC1 [Compound 38, 4-(3-(3-(imino(4-propylpiperazin-1-yl)methyl)phenyl)ureido)-N-(4-sulfamoylbenzyl)benzenesulfonamide]	< 20	medium (Cli between 60 and 600=medium metabolism)	> 200	> 200	> 200	> 200
CCCCN1CCN(C(=N)c2cccc(NC(=O)Nc3ccc(S(=O)(=O)N4Cc5ccc(S(N)(=O)=O)cc5C4)cc3)c2)CC1 [Compound 41, 2-(4-(3-(3-((4-butylpiperazin-1-yl)(imino)methyl)phenyl)ureido)phenylsulfonyl)isoindoline-5-sulfonamide]	20 to 200	medium (Cli between 60 and 600=medium metabolism)	–	–	–	–
N=C(c1cccc(NC(=O)Nc2ccc(S(=O)(=O)NCc3ccc(S(N)(=O)=O)cc3)cc2)c1)N1CCOCC1 [Compound 43, 4-(3-(3-(imino (morpholino)methyl)phenyl)ureido)-N-(4-sulfamoylbenzyl)benzenesulfonamide]	20 to 200	medium (Cli between 60 and 600=medium metabolism)	–	–	–	–
N=C(c1cccc(NC(=O)Nc2ccc(S(=O)(=O)NCc3ccc(S(N)(=O)=O)cc3)cc2)c1)N1CCS(=O)(=O)CC1 [Compound 44, 4-(3-(3-((1,1-dioxidothiomorpholino)(imino)methyl)phenyl)ureido)-N-(4-sulfamoylbenzyl)benzenesulfonamide]	20 to 200	–	> 200	> 200	> 200	> 200
CN1CCN(C(=N)c2cccc(NC(=O)Nc3ccc(S(=O)(=O)NCc4ccc(S(N)(=O)=O)cc4)cc3)c2)CC1 [Compound 53, 4-(3-(3-(imino(4-methylpiperazin-1-yl)methyl)phenyl)ureido)-N-(4-sulfamoylbenzyl)benzenesulfonamide]	210 to 990	low (Cli between 10 and 60=low metabolism)	–	–	–	–
CC(C)N1CCN(C(=N)c2cccc(NC(=O)Nc3ccc(S(=O)(=O)NCc4ccc(S(N)(=O)=O)cc4)cc3)c2)CC1 [Compound 54, 4-(3-(3-(imino(4-isopropylpiperazin-1-yl)methyl)phenyl)ureido)-N-(4-sulfamoylbenzyl)benzenesulfonamide]	20 to 200	medium (Cli between 60 and 600=medium metabolism)	–	–	–	–
CCCCN1CCN(C(=N)c2cccc(NC(=O)Nc3ccc(S(=O)(=O)NCc4ccc(S(N)(=O)=O)cc4)cc3)c2)CC1=O [Compound 63, 4-(3-(3-((4-butyl-3-oxopiperazin-1-yl)(imino)methyl)phenyl)ureido)-N-(4-sulfamoylbenzyl)benzenesulfonamide]	< 20	medium (Cli between 60 and 600=medium metabolism)	–	–	–	–
CN(C)C(=N)c1cccc(NC(=O)Nc2ccc(S(=O)(=O)NCc3ccc(S(N)(=O)=O)cc3)cc2)c1 [Compound 64, N,N-dimethyl-3-(3-(4-(N-(4-sulfamoylbenzyl)sulfamoyl)phenyl)ureido)benzimidamide]	210 to 990	low (Cli between 10 and 60=low metabolism)	–	–	–	–
N#CCCN1CCN(C(=N)c2cccc(NC(=O)Nc3ccc(S(=O)(=O)NCc4ccc(S(N)(=O)=O)cc4)cc3)c2)CC1 [Compound 65, 4-(3-(3-((4-(2-cyanoethyl)piperazin-1-yl)(imino)methyl)phenyl)ureido)-N-(4-sulfamoylbenzyl)benzene sulfonamide]	210 to 990	medium (Cli between 60 and 600=medium metabolism)	–	–	–	–
N=C(c1cccc(NC(=O)Nc2ccc(S(=O)(=O)NCc3ccc(S(N)(=O)=O)cc3)cc2)c1)N1CCN(CC2CC2)CC1 [Compound 66, 4-(3-(3-((4-(cyclopropylmethyl)piperazin-1-yl)(imino)methyl)phenyl)ureido)-N-(4-sulfamoylbenzyl)benzene sulfonamide]	< 20	medium (Cli between 60 and 600=medium metabolism)	–	–	–	–
COCCN1CCN(C(=N)c2cccc(NC(=O)Nc3ccc(S(=O)(=O)NCc4ccc(S(N)(=O)=O)cc4)cc3)c2)CC1 [Compound 69, 4-(3-(3-(imino(4-(2-methoxyethyl)piperazin-1-yl)methyl)phenyl)ureido)-N-(4-sulfamoylbenzyl)benzene sulfonamide]	20 to 200	medium (Cli between 60 and 600=medium metabolism)	–	–	–	–
CCCCN1CCN(C(=N)c2cccc(NC(=O)Nc3ccc(S(=O)(=O)NCc4ccc(S(N)(=O)=O)s4)cc3)c2)CC1 [Compound 70, 5-((4-(3-(3-((4-butylpiperazin-1-yl)(imino)methyl)phenyl)ureido)phenylsulfonamido)methyl)thiophene-2-sulfonamide]	20 to 200	medium (Cli between 60 and 600=medium metabolism)	–	–	–	–
